Measurements reported in patent publication US9790219B2, “Compounds, compositions, and methods for increasing CFTR activity” (Proteostasis Therapeutics, Inc., priority 2014, dated 2017).

Tests used:
[1] = biological target: T1, ΔF508-CFTR (Homo sapiens, UniProt P13569, DEL508-508); test: hBE equivalent current (Ieq) assay; assay type: cell-based; conditions: AUC of equivalent chloride current, primary hBE homozygous ΔF508, 24 h treatment
T1 construct: Primary lung epithelial cells homozygous for the Cystic Fibrosis-causing ΔF508 mutation; endogenous in cells; host or cells: primary human lung (bronchial) epithelial cells homozygous for ΔF508, differentiated at air-liquid interface
Method: Primary lung epithelial cells homozygous for the Cystic Fibrosis-causing ΔF508 mutation were differentiated for a minimum of 4 weeks in an air-liquid interface on Costar 24 well HTS filter plates prior to the equivalent current (Ieq) measurements. Cells were apically mucus-washed for 30 minutes 24 h prior to treatment with compounds. The basolateral media was removed and replaced with media containing the compound of interest diluted to its final concentration from DMSO stocks. Treated cells were incubated at 37° C. and 5% CO2 for 24 hours. At the end of the treatment period, the media was changed to the Ieq experimental solution for 30 minutes before the experiment and plates are maintained in a CO2-free incubator during this period. The plates containing the cells were then placed in pre-warmed heating blocks at 36° C.±0.5 for 15 minutes before measurements are taken. The transepithelial voltage (VT) and conductance (GT) were measured using a custom 24 channel current clamp (TECC-24) with 24 well electrode manifold. The Ieq assay measurements were made following additions with standardized time periods: • 1. The baseline VT and GT values were measured for approximately 20 minutes. • 2. Benzamil was added to block ENaC for 15 minutes. • 3. Forskolin plus VX-770 were added to maximally activate ΔF508-CFTR for 27 minutes. • 4. Bumetanide was added to inhibit the NaK2Cl cotransporter and shut-off secretion of chloride.
The activity data captured was the area under the curve (AUC) for the traces of the equivalent chloride current. The AUC was collected from the time of the forskolin/VX-770 addition until the inhibition by bumetanide addition. Correction in response to compound treatment was scored as the increase in the AUC for compound-treated samples over that of vehicle-treated samples. The results are shown below in Table 2 (++indicates activity ≧25% run at 10 uM of VX-809 at 1 uM; +indicates activity 10 to <25% run at 10 uM of VX-809 at 1 uM; ** indicates activity ≧200% of VX-809 (1 uM) with compound at 10 uM and VX-809 at 1 uM; * indicates activity 100-200% of VX-809 (1 uM) with compound at 10 uM and VX-809 at 1 uM)

[2] = biological target: T1, ΔF508-CFTR; test: Ussing measurements; assay type: cell-based; conditions: CFTRinh-172 inhibitable short-circuit current, primary hBE homozygous ΔF508, 24 h treatment
Method: As discussed above, Ussing measurements can be used to measure CFTR activity. In this method, primary lung epithelial cells (hBEs) homozygous for the Cystic Fibrosis-causing ΔF508 mutation are differentiated for a minimum of 4 weeks in an air-liquid interface on SnapWell filter plates prior to the Ussing measurements. Cells are apically mucus-washed for 30 minutes prior to treatment with compounds. The basolateral media is removed and replaced with media containing the compound of interest diluted to its final concentration from DMSO stocks. Treated cells are incubated at 37° C. and 5% CO2 for 24 hours. At the end of the treatment period, the cells on filters are transferred to the Ussing chamber and equilibrated for 30 minutes. The short-circuit current is measured in voltage clamp-mode (Vhold=0 mV), and the entire assay is conducted at a temperature of 36° C.-36.5° C. Once the voltages stabilized, the chambers are clamped, and data is recorded by pulse readings every 5 seconds. Following baseline current stabilization, the following additions can be applied and the changes in current and resistance of the cells can be monitored: • 1. Benzamil to the apical chamber to inhibit ENaC sodium channel. • 2. Forskolin to both chambers to activate ΔF508-CFTR by phosphorylation. • 3. Genistein to both chambers to potentiate ΔF508-CFTR channel opening. • 4. CFTRinh-172 to the apical chamber to inhibit ΔF508-CFTR Cl-conductance.
The inhibitable current (that current that is blocked by CFTRinh-172) is measured as the specific activity of the ΔF508-CFTR channel, and increases in response to compound in this activity over that observed in vehicle-treated samples are identified as the correction of ΔF508-CFTR function imparted by the compound tested.

[3] = compound alone at 10 uM, relative to VX-809 at 1 uM
[4] = compound at 10 uM together with VX-809 at 1 uM, relative to VX-809 (1 uM)

T1 sequence (P13569 with tags, fused parts or gaps DEL508-508): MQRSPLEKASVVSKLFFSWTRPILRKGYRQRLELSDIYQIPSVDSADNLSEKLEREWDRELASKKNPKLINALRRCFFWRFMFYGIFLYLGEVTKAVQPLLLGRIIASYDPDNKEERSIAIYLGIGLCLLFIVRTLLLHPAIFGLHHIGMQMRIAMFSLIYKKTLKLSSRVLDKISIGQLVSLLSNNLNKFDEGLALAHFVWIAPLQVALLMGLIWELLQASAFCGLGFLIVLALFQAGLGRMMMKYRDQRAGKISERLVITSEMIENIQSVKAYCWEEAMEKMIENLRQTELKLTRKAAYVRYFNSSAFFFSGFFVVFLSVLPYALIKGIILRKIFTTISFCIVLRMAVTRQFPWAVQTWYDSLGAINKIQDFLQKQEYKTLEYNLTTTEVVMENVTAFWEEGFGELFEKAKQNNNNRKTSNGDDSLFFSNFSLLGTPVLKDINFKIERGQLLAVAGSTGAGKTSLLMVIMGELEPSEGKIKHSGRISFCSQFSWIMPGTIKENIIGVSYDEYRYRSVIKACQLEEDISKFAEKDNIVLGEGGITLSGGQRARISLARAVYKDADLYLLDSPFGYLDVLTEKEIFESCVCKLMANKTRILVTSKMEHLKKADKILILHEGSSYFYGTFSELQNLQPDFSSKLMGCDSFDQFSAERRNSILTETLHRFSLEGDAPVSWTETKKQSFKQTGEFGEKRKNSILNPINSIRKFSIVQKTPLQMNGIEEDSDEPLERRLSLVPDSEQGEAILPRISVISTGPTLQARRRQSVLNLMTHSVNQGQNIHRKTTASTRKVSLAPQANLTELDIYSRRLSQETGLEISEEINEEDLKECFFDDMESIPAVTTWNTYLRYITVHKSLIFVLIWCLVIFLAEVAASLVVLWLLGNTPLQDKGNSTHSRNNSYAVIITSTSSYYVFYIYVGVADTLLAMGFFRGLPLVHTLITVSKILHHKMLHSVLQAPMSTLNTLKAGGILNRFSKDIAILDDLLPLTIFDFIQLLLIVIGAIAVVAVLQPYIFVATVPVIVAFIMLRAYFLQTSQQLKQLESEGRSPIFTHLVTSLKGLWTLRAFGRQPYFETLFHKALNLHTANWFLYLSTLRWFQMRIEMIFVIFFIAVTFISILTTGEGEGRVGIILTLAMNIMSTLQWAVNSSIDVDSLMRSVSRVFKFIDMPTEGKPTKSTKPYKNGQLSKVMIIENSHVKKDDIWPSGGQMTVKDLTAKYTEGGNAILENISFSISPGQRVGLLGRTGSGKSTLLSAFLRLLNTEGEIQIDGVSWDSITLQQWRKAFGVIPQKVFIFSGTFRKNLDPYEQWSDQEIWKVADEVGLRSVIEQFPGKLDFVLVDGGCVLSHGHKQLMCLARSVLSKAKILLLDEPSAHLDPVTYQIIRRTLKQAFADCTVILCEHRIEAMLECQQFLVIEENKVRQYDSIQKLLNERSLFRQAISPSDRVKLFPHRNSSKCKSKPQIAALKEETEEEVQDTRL

## O=C(NCCc1nnc(CO)s1)c1cc(-c2ccccc2)on1 [Compound A2, N-(2-(5-(hydroxymethyl)-1,3,4-thiadiazol-2-yl)ethyl)-5-phenylisoxazole-3-carboxamide]
[1]; [3]
  Ieq Activity: ++ (++indicates activity ≧25% run at 10 uM of VX-809 at 1 uM)
[1]; [4]
  Ieq Activity: ** (** indicates activity ≧200% of VX-809 (1 uM) with compound at 10 uM and VX-809 at 1 uM)
[2]; [3]
  Ussing: ++ (++indicates activity ≧25% run at 10 uM of VX-809 at 1 uM)
[2]; [4]
  Ussing: ** (** indicates activity ≧200% of VX-809 (1 uM) with compound at 10 uM and VX-809 at 1 uM)

## O=C(NCCc1nnc(C(O)C(F)(F)F)s1)c1cc(-c2ccccc2)on1 (centres unmarked) [Compound A23, 5-phenyl-N-(2-(5-(2,2,2-trifluoro-1-hydroxyethyl)-1,3,4-thiadiazol-2-yl)ethyl)isoxazole-3-carboxamide]
[1]; [4]
  Ieq Activity: ** (** indicates activity ≧200% of VX-809 (1 uM) with compound at 10 uM and VX-809 at 1 uM)

## O=C(NCCc1nnc(CO)s1)c1noc(-c2ccccc2)c1F [Compound A11, 4-fluoro-N-(2-(5-(hydroxymethyl)-1,3,4-thiadiazol-2-yl)ethyl)-5-phenylisoxazole-3-carboxamide]
[1]; [4]
  Ieq Activity: * (* indicates activity 100-200% of VX-809 (1 uM) with compound at 10 uM and VX-809 at 1 uM)

## CC(C)(O)c1nnc(CCNC(=O)c2cc(-c3ccccc3)on2)o1 [Compound A10, N-(2-(5-(2-hydroxypropan-2-yl)-1,3,4-oxadiazol-2-yl)ethyl)-5-phenylisoxazole-3-carboxamide]
[1]; [4]
  Ieq Activity: ** (** indicates activity ≧200% of VX-809 (1 uM) with compound at 10 uM and VX-809 at 1 uM)

## CO[C@H](C)c1nnc(CCNC(=O)c2cc(-c3ccccc3)on2)s1 [Compound A25-b, (R)-N-(2-(5-(1-methoxyethyl)-1,3,4-thiadiazol-2-yl)ethyl)-5-phenylisoxazole-3-carboxamide]
[1]; [4]
  Ieq Activity: ** (** indicates activity ≧200% of VX-809 (1 uM) with compound at 10 uM and VX-809 at 1 uM)

## CC(C)c1nnc(CCNC(=O)c2cc(-c3ccccc3)on2)o1 [Compound A8, N-(2-(5-isopropyl-1,3,4-oxadiazol-2-yl)ethyl)-5-phenylisoxazole-3-carboxamide]
[1]; [4]
  Ieq Activity: ** (** indicates activity ≧200% of VX-809 (1 uM) with compound at 10 uM and VX-809 at 1 uM)

## Cc1nnc(CCCNC(=O)c2cc(-c3ccccc3)on2)s1 [Compound A6, N-(3-(5-methyl-1,3,4-thiadiazol-2-yl)propyl)-5-phenylisoxazole-3-carboxamide]
[1]; [4]
  Ieq Activity: ** (** indicates activity ≧200% of VX-809 (1 uM) with compound at 10 uM and VX-809 at 1 uM)

## O=C(NCCc1nnc(CO)s1)c1noc(-c2ccc(F)cc2)c1F [Compound A12, 4-fluoro-5-(4-fluorophenyl)-N-(2-(5-(hydroxymethyl)-1,3,4-thiadiazol-2-yl)ethyl)isoxazole-3-carboxamide]
[1]; [4]
  Ieq Activity: * (* indicates activity 100-200% of VX-809 (1 uM) with compound at 10 uM and VX-809 at 1 uM)

## COCc1nnc(CCNC(=O)c2cc(-c3ccccc3)on2)s1 [Compound A4, N-(2-(5-(methoxymethyl)-1,3,4-thiadiazol-2-yl)ethyl)-5-phenylisoxazole-3-carboxamide]
[1]; [4]
  Ieq Activity: ** (** indicates activity ≧200% of VX-809 (1 uM) with compound at 10 uM and VX-809 at 1 uM)

## CC(C)(O)c1nnc(CCNC(=O)c2cc(-c3ccccc3)on2)s1 [Compound A9, N-(2-(5-(2-hydroxypropan-2-yl)-1,3,4-thiadiazol-2-yl)ethyl)-5-phenylisoxazole-3-carboxamide]
[1]; [4]
  Ieq Activity: ** (** indicates activity ≧200% of VX-809 (1 uM) with compound at 10 uM and VX-809 at 1 uM)

## [N-]=[N+]=NCc1nnc(CCNC(=O)c2cc(-c3ccccc3)on2)s1 [Compound A7, N-(2-(5-(azidomethyl)-1,3,4-thiadiazol-2-yl)ethyl)-5-phenylisoxazole-3-carboxamide]
[1]; [4]
  Ieq Activity: ** (** indicates activity ≧200% of VX-809 (1 uM) with compound at 10 uM and VX-809 at 1 uM)

## COC(C)c1nnc(CCNC(=O)c2cc(-c3ccccc3)on2)o1 (stereo in doubt) [Compound A24-b, (S)-N-(2-(5-(1-methoxyethyl)-1,3,4-oxadiazol-2-yl)ethyl)-5-phenylisoxazole-3-carboxamide]
[1]; [4]
  Ieq Activity: * (* indicates activity 100-200% of VX-809 (1 uM) with compound at 10 uM and VX-809 at 1 uM)

## O=C(NCCc1nnc(COC(F)(F)F)s1)c1cc(-c2ccccc2)on1 [Compound A16, 5-phenyl-N-(2-(5-((trifluoromethoxy)methyl)-1,3,4-thiadiazol-2-yl)ethyl)isoxazole-3-carboxamide]
[1]; [4]
  Ieq Activity: * (* indicates activity 100-200% of VX-809 (1 uM) with compound at 10 uM and VX-809 at 1 uM)

## O=C(NCCc1nnc(CBr)s1)c1cc(-c2ccccc2)on1 [Compound A3, N-(2-(5-(bromomethyl)-1,3,4-thiadiazol-2-yl)ethyl)-5-phenylisoxazole-3-carboxamide]
[1]; [4]
  Ieq Activity: ** (** indicates activity ≧200% of VX-809 (1 uM) with compound at 10 uM and VX-809 at 1 uM)

## C[C@@H](O)c1nnc(CCNC(=O)c2cc(-c3ccccc3)on2)s1 [Compound A13, (R)-N-(2-(5-(1-hydroxyethyl)-1,3,4-thiadiazol-2-yl)ethyl)-5-phenylisoxazole-3-carboxamide]
[1]; [4]
  Ieq Activity: ** (** indicates activity ≧200% of VX-809 (1 uM) with compound at 10 uM and VX-809 at 1 uM)

## C[C@@H](O)c1nnc(CCNC(=O)c2cc(-c3ccccc3)on2)o1 [Compound A14, (R)-N-(2-(5-(1-hydroxyethyl)-1,3,4-oxadiazol-2-yl)ethyl)-5-phenylisoxazole-3-carboxamide]
[1]; [4]
  Ieq Activity: * (* indicates activity 100-200% of VX-809 (1 uM) with compound at 10 uM and VX-809 at 1 uM)

## O=C(NCCc1nnc(COC(F)(F)F)o1)c1cc(-c2ccccc2)on1 [Compound A15, 5-phenyl-N-(2-(5-((trifluoromethoxy)methyl)-1,3,4-oxadiazol-2-yl)ethyl)isoxazole-3-carboxamide]
[1]; [4]
  Ieq Activity: * (* indicates activity 100-200% of VX-809 (1 uM) with compound at 10 uM and VX-809 at 1 uM)

## COC(C)c1nnc(CCNC(=O)c2cc(-c3ccccc3)on2)o1 (stereo in doubt) [Compound A24-a, (R)-N-(2-(5-(1-methoxyethyl)-1,3,4-oxadiazol-2-yl)ethyl)-5-phenylisoxazole-3-carboxamide]
[1]; [4]
  Ieq Activity: * (* indicates activity 100-200% of VX-809 (1 uM) with compound at 10 uM and VX-809 at 1 uM)

## COCc1nnc(CCNC(=O)c2cc(-c3ccccc3)on2)o1 [Compound A5, N-(2-(5-(methoxymethyl)-1,3,4-oxadiazol-2-yl)ethyl)-5-phenylisoxazole-3-carboxamide]
[1]; [4]
  Ieq Activity: ** (** indicates activity ≧200% of VX-809 (1 uM) with compound at 10 uM and VX-809 at 1 uM)

## CO[C@@H](C)c1nnc(CCNC(=O)c2cc(-c3ccccc3)on2)s1 [Compound A25-a, (S)-N-(2-(5-(1-methoxyethyl)-1,3,4-thiadiazol-2-yl)ethyl)-5-phenylisoxazole-3-carboxamide]
[1]; [4]
  Ieq Activity: ** (** indicates activity ≧200% of VX-809 (1 uM) with compound at 10 uM and VX-809 at 1 uM)
